Experimental data from patent US6407257B1, “Derivatives of erythromycin, their preparation process and their use as medicaments” (Aventis Pharma S.A., priority 1998, dated 2002).

Experiments:
Streptococcus pneumoniae = assay: Method of dilutions in liquid medium (minimal inhibitory concentration); type: cell-based; conditions: incubation 24 hours at 37° C., growth inhibition by transillumination
Method: (§1) A—Method of Dilutions in Liquid Medium A series of tubes were prepared in which the same quantity of nutritive sterile medium is distributed. Increasing quantities of the product to be studied are distributed into each tube, then each tube is sown with a bacterial strain. After incubation for 24 hours in a heating chamber at 37° C., the growth inhibition is evaluated by transillumination, which allows the minimal inhibitory concentrations to be determined, expressed in micrograms/cm^3. The following results were obtained

Streptococcus pyogenes = assay: as above; type: cell-based; conditions: incubation 24 hours at 37° C., growth inhibition by transillumination
Method: as §1

Molecule	minimal inhibitory concentrations (Streptococcus pneumoniae) [micrograms/cm^3]	minimal inhibitory concentrations (Streptococcus pyogenes) [micrograms/cm^3]
2-Fluoro-11,12-dideoxy-3-de[(2,6-dideoxy-3-C-methyl-3-0-methyl-alpha-L-ribohexopyranosyl)oxy]-6-0-methyl-3-oxo-12,11-[oxycarbonyl[[4-[4-(4-aminophenyl)-1H-imidazol-1-yl]butyl]imino]]-eryrthromycin [EX. 2]	0.150	0.3
CCC1OC(=O)C(C)C(=O)C(C)C(OC2OC(C)CC(N(C)C)C2O)C(C)(OC)CC(C)C(=O)C(C)C2N(CCCCn3cnc(-c4ccc(N)cc4)c3)C(=O)OC12C [EX. 1, 11,12-Dideoxy-3-de[(2,6-dideoxy-3-C-methyl-3-0-methyl-alpha-L-ribohexopyranosyl)oxy]-6-0-methyl-3-oxo-12,11-[oxycarbonyl-[[4-[4-(4-aminophenyl)-1H-imidazol-1-yl]butyl]imino]]-eryrthromycin]	1.2	2.5
